The values below come from PMC6693780, “Triazoloquinazolines as a new class of potent α-glucosidase inhibitors: in vitro evaluation and docking study” (PLoS ONE, 2019).

This test has as its target α-glucosidase enzyme from Saccharomyces cerevisiae type 1. Description: α-Glucosidase inhibitory assay (p-NPG substrate, absorbance at 405 nm). The test is classed as biochemical. The note with it: for IC50: S. cerevisiae α-glucosidase type 1, p-NPG 2 mM, pH 6.5, 37°C, 30 min, triplicate; for times more potent than acarbose: ratio of IC50 values versus acarbose; for inhibition of α-glucosidase (not screened for IC50): screening, concentration not given. The protocol: For phosphate-buffered saline (PBS), NaH₂PO₄ (1.4 g), NaCl (8 g), KCl (0.2 g), and KH₂PO4 (0.2 g) were dissolved in deionized H2O (1 L) at 20°C. Using NaOH (1M) and HCl (1M), the pH of the solution was adjusted to 6.5 at 20°C. p-Nitrophenyl-α-D-glucopyranoside (2 mM) (p-NPG-substrate) was prepared by dissolving p-NPG (6 mg) in buffer solution (10 mL). α-Glucosidase enzyme Type 1, lyophilized powder (Sigma-Aldrich) from Saccharomyces cerevisiae (a mixture of MAL12 and MAL32) was employed. The enzyme solution was prepared by dissolving 1 mg of in 1000 μL of cold PBS (pH 6.5). Subsequently, 50 μL of α-glucosidase enzyme solution was mixed with cold buffered saline (12 mL) to a concentration of 0.125 unit/mL. For sample screening, a solution of 200 μg/mL concentration was prepared in 100% DMSO, and then subjected to two-fold serial dilution in 5% DMSO in a 96-well microplate to obtain concentrations of 100, 50, 25, 12.5, 6.25, 3.13, and 1.56 μg/mL. The samples were screened using Epoch 2 Microplate Spectrophotometer from BioTek. To each well of the 96-well microplate, 10 μL of DMSO (5%) was added. The stock solution (10 μL) was added to the first well and mixed. Then, 10 μL of sample was withdrawn from the first well and added to the second well, and the process was repeated for two-fold serial dilution. Subsequently, 20 μL of α-glucosidase enzyme, 40 μL of PBS (pH 6.5), and 20 μL of deionized H2O were added to each well of the 96-well microtiter plate with constant stirring. The plate was pre-incubated at 37°C for 10 min, and then 10 μL of p-NPG (2 mM) solution was added to the mixture; its absorbance at 0 min was measured at a wavelength of 405 nm. The reaction mixture was incubated at 37°C for 30 min, and subsequently, its absorbance was measured. […] The experiment was performed in triplicate. According to a previously described methodology, the α-glucosidase inhibitory activity was determined and the inhibition (%) of this activity was calculated using the following equation: %inhibition=(A30min−A0min)control−(A30min−A0min)exp/(A30min−A0min)control×100

Several values for one entry are separate records, joined by “and”; a condition that tells them apart may be missing. Equal values may be shown once.

In general, IC50 refers to the concentration that gives 50% inhibition. Higher therefore signals weaker potency in that assay. Compound `CSc1nc2[nH]c(=O)c3ccccc3n2n1` [Compound 1] displayed an IC50 of 155.9 ± 1.36 µM.
Regarding `CS(=O)(=O)c1nc2[nH]c(=O)c3ccccc3n2n1` [Compound 2], the concentration for half-maximal inhibition (IC50) came to 180 µM.
The same measure, in the same setting: then `O=c1[nH]c2nc(Oc3ccccc3)nn2c2ccccc12` [Compound 3], with 83.9 ± 5.12 µM.
For the compound `CCn1c(=O)c2ccccc2n2nc(SC)nc12` [Compound 4], 45.6 ± 4.28 µM corresponded to half-maximal inhibition (IC50) and the “times more potent than acarbose” value is about 3.
In the case of `C=CCn1c(=O)c2ccccc2n2nc(SC)nc12` [Compound 5], the 50% inhibitory concentration (IC50) was 45.6 µM and 72.3 µM.
With `CSc1nc2n(Cc3ccc([N+](=O)[O-])cc3)c(=O)c3ccc(C)cc3n2n1` [Compound 6], the “inhibition of α-glucosidase (not screened for IC50)” value is “less than 50%”. Moreover, the “% inhibition of α-glucosidase” value (at 0.28 μM) was determined as 16.24% inhibition at 0.28 μM.
With `CCn1c(=O)c2ccccc2n2nc(S(C)(=O)=O)nc12` [Compound 7], the “inhibition of α-glucosidase (not screened for IC50)” value is “less than 50%”. Moreover, under “at 0.34 μM”, the “% inhibition of α-glucosidase” value turned out to be 19.15% inhibition at 0.34 μM.
In the case of `C=CCn1c(=O)c2ccccc2n2nc(S(C)(=O)=O)nc12` [Compound 8], the IC50 turned out to be 28.5 ± 1.22 µM and the “times more potent than acarbose” value is recorded as about 5.
For `O=c1c2ccccc2n2nc(Oc3ccccc3)nc2n1Cc1ccc([N+](=O)[O-])cc1` [Compound 9], the “% inhibition of α-glucosidase” value (at 0.24 μM) turned out to be 16.89% inhibition at 0.24 μM.
As to `Cc1ccc2c(=O)n(Cc3ccc(C#N)cc3)c3nc(Oc4ccccc4)nn3c2c1` [Compound 10], the “% inhibition of α-glucosidase” value (at 0.25 μM) came to 14.83% inhibition at 0.25 μM.
For `Cc1ccc2c(=O)n(Cc3ccc([N+](=O)[O-])cc3)c3nc(Oc4ccccc4)nn3c2c1` [Compound 11], the “% inhibition of α-glucosidase” value (at 0.23 μM) came out at 19.52% inhibition at 0.23 μM.
`O=c1c2ccccc2n2nc(Oc3ccccc3)nc2n1CCN1CCCCC1` [Compound 12] registered an IC50 of 97.53 ± 0.94 µM.
In the case of `Cc1ccc2c(=O)n(Cc3cccc(C#N)c3)c3nc(Oc4ccccc4)nn3c2c1` [Compound 13], the “inhibition of α-glucosidase (not screened for IC50)” value is reported as “less than 50%”. Besides, under “at 0.21 μM”, the “% inhibition of α-glucosidase” value turned out to be 27.93% inhibition at 0.21 μM.
As to `O=C1c2ccccc2C(=O)N1CCn1c(=O)c2ccccc2n2nc(Oc3ccccc3)nc12` [Compound 14], the IC50 turned out to be 12.7 ± 1.87 µM and the “times more potent than acarbose” value is “approximately 12”.
